These results are taken from patent US20220273619A1, “PHARMACEUTICAL FORMULATIONS COMPRISING SODIUM PALMITOYL-L-PROLYL-L-PROLYLGLYCYL-L-TYROSINATE AND METHODS FOR PREPARING THE SAME” (Bridge Blctherapeutics, lnc., priority 2019, published 2022).

The nature of data set [1]: Solubility in water of other salts of Compound II. Format: physicochemical.
A short description of data set [2]: Solubility at room temperature, manual dilution combined with visual observation. The class given is physicochemical. The settings on record: for solubility: room temperature. As to the method: The solubility was tested in various solvents for palmitoyl-L-prolyl-L-prolyl-glycyl-L-tyrosine (Compound II). The solubility test was performed by manual dilution combined with visual observation.
The solubility was tested at room temperature in various solvents for Compound I. In addition, the solubility test was performed by manual dilution combined with visual observation. Specifically, 2 mg of Compound I was added to a 1.5 mL HPLC vial and continuously stirred at ambient temperature while the solvent was gradually added.

Data set [3] can be described thus: Stability test: impurities by HPLC after storage. Format: physicochemical. As to the method:
After the dosage forms prepared in the present invention were stored for a period of time in a long-term storage stability condition (25° C./60% RH) or an accelerated stability condition (40° C./75% RH), the content of individual impurities or total impurities was measured. The impurities were measured using a validated HPLC analysis method. The specific conditions are as follows.

Data set [4] can be described thus: Solubility by shaking at 25° C., filtration and HPLC of the filtrate. The class given is physicochemical. As for the experimental part:
The solubility was measured by the following method. An appropriate amount of sample was placed in a 1.5 mL HPLC vial, and then 1.0 mL of solvent was added. The HPLC vial was shaken at 25° C. at a speed of 700 rpm, then the slurry was filtered, and the filtrate was analyzed by HPLC. In this case, the limit of quantification (LOQ) was 2 μg/mL.
In order to increase the solubility of palmitoyl-L-prolyl-L-prolyl-glycyl-L-tyrosine (Compound II) in water, the amorphous solid dispersions of Compound II were prepared, and then the solubility was measured.
In order to increase the solubility of palmitoyl-L-prolyl-L-prolyl-glycyl-L-tyrosine (Compound II) in water, a surfactant such as sodium lauryl sulfate (SLS) was added, and the solubility was measured.

For data set [5], the system named is interleukin-6. The note with it: cited from earlier work.
Data set [6] relates to NF-κB. The note with it: cited from earlier work.
The nature of data set [7]: Solid-form observation of the disodium salt (hygroscopicity). The settings on record: could not be maintained in the form of the solid powder. The class given is physicochemical. As to the method:
In the method for preparing Compound I, an excess of NaOH (for example; 4 equivalents) was added to prepare disodium palmitoyl-L-prolyl-L-prolyl-glycyl-L-tyrosinate.

The mark [8] stands for this setting: 1,4-dioxane, 1,4-dioxane, read-out: Solubility.
Setting [9] is: 1-butanol, read-out: Solubility.
Where [10] appears, read: 2-methyl tetrahydrofuran, read-out: Solubility.
The mark [11] stands for this setting: ACN-H2O (1:1), read-out: Solubility.
Where [12] appears, read: N-methyl pyrrolidone, read-out: Solubility.
Where [13] appears, read: THF-H2O (1:1), read-out: Solubility.
Setting [14] is: acetone-H2O (1:2), read-out: Solubility.
[15] abbreviates: acetonitrile, read-out: Solubility.
Where [16] appears, read: cyclohexane, read-out: Solubility.
Setting [17] is: ethanol-H2O (1:1), read-out: Solubility.
Where [18] appears, read: ethanol-H2O (3:1), read-out: Solubility.
Setting [19] is: ethyl acetate, read-out: Solubility.
The mark [20] stands for this setting: isopropyl acetate, read-out: Solubility.
Where [21] appears, read: isopropyl alcohol, read-out: Solubility.
The mark [22] stands for this setting: methanol-H2O (1:1), read-out: Solubility.
The mark [23] stands for this setting: methanol-H2O (3:1), read-out: Solubility.
The mark [24] stands for this setting: methyl ethyl ketone, read-out: Solubility.
[25] abbreviates: methyl isobutyl ketone, read-out: Solubility.
The mark [26] stands for this setting: methyl t-butyl ether, read-out: Solubility.
The mark [27] stands for this setting: tetrahydrofuran, read-out: Solubility.
Setting [28] is: SGF (pH = 1.2), 25° C., LOQ = 2 μg/mL.

≈ marks a conversion by molar mass, not a printed value. Where a name gives a salt, the structure may show the parent alone. Where a SMILES comes first, the peptide text is derived from it. The star is where a group is joined. Palmitoyl = CCCCCCCCCCCCCCCC(=O)*

Regarding `CCCCCCCCCCCCCCCC(=O)N1CCC[C@H]1C(=O)N1CCC[C@H]1C(=O)NCC(=O)N[C@@H](Cc1ccc(O)cc1)C(=O)O` [Arginine Salt] (Palmitoyl-PPGY-OH), in data set [1], the solubility (usually the dissolved amount per volume that the medium holds) is below 10000 µg/mL.

As for `CCCCCCCCCCCCCCCC(=O)N1CCC[C@H]1C(=O)N1CCC[C@H]1C(=O)NCC(=O)N[C@@H](Cc1ccc(O)cc1)C(=O)[O-].[Na+]` [Compound I, sodium palmitoyl-L-prolyl-L-prolyl-glycyl-L-tyrosinate] (Palmitoyl-PPGY-OH), the solubility was 33300 to 50000 µg/mL in data set [2] (setting [8]); 50000 to 100000 µg/mL in data set [2] (setting [9]); above 100000 µg/mL in data set [2] (setting [10]); 50000 to 100000 µg/mL in data set [2] (setting [11]); 20000 to 33300 µg/mL in data set [2] (DMF, read-out: Solubility); 50000 to 100000 µg/mL in data set [2] (DMSO, read-out: Solubility). In addition, the solubility is 50000 to 100000 µg/mL in data set [2] (setting [12]); 50000 to 100000 µg/mL in data set [2] (setting [13]); 50000 to 100000 µg/mL in data set [2] (setting [14]); below 1000 µg/mL in data set [2] (acetone, read-out: Solubility); below 1000 µg/mL in data set [2] (setting [15]); below 1000 µg/mL in data set [2] (setting [16]). Further, the solubility in data set [2] (setting [17]) was 50000 to 100000 µg/mL; in data set [2] (setting [18]), 50000 to 100000 µg/mL; in data set [2] (ethanol, read-out: Solubility) it was 50000 to 100000 µg/mL; in data set [2] (setting [19]) it was below 1000 µg/mL; in data set [2] (heptane, read-out: Solubility) it was below 1000 µg/mL; in data set [2] (setting [20]), below 1000 µg/mL. Further, the solubility in data set [2] (setting [21]) is 50000 to 100000 µg/mL; in data set [2] (setting [22]), above 100000 µg/mL; in data set [2] (setting [23]), above 100000 µg/mL; in data set [2] (methanol, read-out: Solubility), above 100000 µg/mL; in data set [2] (setting [24]), 3300 to 5000 µg/mL; in data set [2] (setting [25]), 1200 to 1400 µg/mL. Besides, the solubility in data set [2] (setting [26]) is below 1000 µg/mL; in data set [2] (setting [27]), above 100000 µg/mL; in data set [2] (toluene, read-out: Solubility), 50000 to 100000 µg/mL; in data set [2] (water, read-out: Solubility), at least 100000 µg/mL. In addition, the “water solubility of Compound I compared to that of Compound II in an acid form” value in data set [2] (water) is “tens of thousands of times or more”. Moreover, the “Stability of Compound I” value in data set [3] (in capsules of Table 26, 1 month, accelerated stability condition 40° C./75% RH) is recorded as “stable”; in data set [3] (in capsules of Table 31, 1 month, accelerated stability condition 40° C./75% RH) it was “stable”; in data set [3] (in capsules of Table 36, 6 months, long-term storage stability condition 25° C./60% RH), “stable”; in data set [3] (in capsules of Table 37, 6 months, accelerated stability condition 40° C./75% RH), “stable”.

As to `CCCCCCCCCCCCCCCC(=O)N1CCC[C@H]1C(=O)N1CCC[C@H]1C(=O)NCC(=O)N[C@@H](Cc1ccc(O)cc1)C(=O)O` [Compound II, Palmitoyl-L-prolyl-L-prolyl-glycyl-L-tyrosine] (Palmitoyl-PPGY-OH), the solubility in data set [2] (setting [8]) was below 1000 µg/mL; in data set [2] (setting [9]), below 1000 µg/mL; in data set [2] (setting [10]), below 1000 µg/mL; in data set [2] (setting [11]), below 1000 µg/mL; in data set [2] (DMF, read-out: Solubility) it was 1000 to 5000 µg/mL; in data set [2] (DMSO, read-out: Solubility), 10000 to 25000 µg/mL. The solubility is 1000 to 5000 µg/mL in data set [2] (setting [12]); 1000 to 5000 µg/mL in data set [2] (setting [13]); below 1000 µg/mL in data set [2] (Water); below 1000 µg/mL in data set [2] (setting [14]); below 1000 µg/mL in data set [2] (acetone, read-out: Solubility); below 1000 µg/mL in data set [2] (setting [15]). In addition, the solubility was below 1000 µg/mL in data set [2] (setting [16]); below 1000 µg/mL in data set [2] (setting [17]); below 1000 µg/mL in data set [2] (setting [18]); below 1000 µg/mL in data set [2] (ethanol, read-out: Solubility); below 1000 µg/mL in data set [2] (setting [19]); below 1000 µg/mL in data set [2] (heptane, read-out: Solubility). The solubility in data set [2] (setting [20]) is below 1000 µg/mL; in data set [2] (setting [21]) it was below 1000 µg/mL; in data set [2] (setting [22]), below 1000 µg/mL; in data set [2] (setting [23]), below 1000 µg/mL; in data set [2] (methanol, read-out: Solubility), 1000 to 5000 µg/mL; in data set [2] (setting [24]) it was below 1000 µg/mL. Moreover, the solubility was below 1000 µg/mL in data set [2] (setting [25]); below 1000 µg/mL in data set [2] (setting [26]); below 1000 µg/mL in data set [2] (setting [27]); below 1000 µg/mL in data set [2] (toluene, read-out: Solubility); below 1000 µg/mL in data set [2] (water, read-out: Solubility); “<LOQ” in data set [4] (1% Poloxamer 188 added, SGF (pH = 1.2), LOQ = 2 μg/mL). Besides, the solubility result in data set [4] (1% Poloxamer 188 added, Water, LOQ = 2 μg/mL) is “<LOQ”; in data set [4] (5% Poloxamer 188 added, SGF (pH = 1.2), LOQ = 2 μg/mL) it was “<LOQ”; in data set [4] (5% Poloxamer 188 added, Water, LOQ = 2 μg/mL), “<LOQ”; in data set [4] (FaSSIF with 1% Poloxamer 188, 1% Poloxamer 188 added, FaSSIF, LOQ = 2 μg/mL, read-out: Solubility) it was 10 µg/mL (≈ 14.9 µM); in data set [4] (FaSSIF with 1% SLS, 1% SLS added, FaSSIF, LOQ = 2 μg/mL, read-out: Solubility), 1990 µg/mL (≈ 2970 µM); in data set [4] (FaSSIF with 5% Poloxamer 188, 5% Poloxamer 188 added, FaSSIF, LOQ = 2 μg/mL, read-out: Solubility) it was 10 µg/mL (≈ 14.9 µM). Besides, the solubility in data set [4] (FaSSIF with 5% SLS, 5% SLS added, FaSSIF, LOQ = 2 μg/mL, read-out: Solubility) is 5090 µg/mL (≈ 7590 µM); in data set [4] (FaSSIF, 25° C., LOQ = 2 μg/mL), 10 µg/mL (≈ 14.9 µM); in data set [4] (setting [28]) it was “<LOQ”; in data set [4] (SGF with 1% SLS, pH 1.2, 1% SLS added, SGF (pH = 1.2), LOQ = 2 μg/mL, read-out: Solubility), 90 µg/mL (≈ 134 µM); in data set [4] (SGF with 5% SLS, pH 1.2, 5% SLS added, SGF (pH = 1.2), LOQ = 2 μg/mL, read-out: Solubility), 380 µg/mL (≈ 566 µM); in data set [4] (Water, 25° C., LOQ = 2 μg/mL) it was “<LOQ”. The solubility is 470 µg/mL (≈ 701 µM) in data set [4] (water with 1% SLS, 1% SLS added, Water, LOQ = 2 μg/mL, read-out: Solubility); 1920 µg/mL (≈ 2860 µM) in data set [4] (water with 5% SLS, 5% SLS added, Water, LOQ = 2 μg/mL, read-out: Solubility); below 2 µg/mL in data set [4] (water, lower than the limit of quantification (LOQ), read-out: water solubility). Moreover, in data set [5], the “inhibiting the expression of interleukin-6” value is “excellent effect”. Moreover, in data set [6], the “inhibiting the activity of NF-κB” value was “excellent effect”.

Consider `CCCCCCCCCCCCCCCC(=O)N1CCC[C@H]1C(=O)N1CCC[C@H]1C(=O)NCC(=O)N[C@@H](Cc1ccc([O-])cc1)C(=O)[O-].[Na+].[Na+]` [Disodium Palmitoyl-L-prolyl-L-prolyl-glycyl-L-tyrosinate] (Palmitoyl-PPGY-OH), for which, in data set [7], the Hygroscopicity result is on record as “very hygroscopic”.

As to `CCCCCCCCCCCCCCCC(=O)N1CCC[C@H]1C(=O)N1CCC[C@H]1C(=O)NCC(=O)N[C@@H](Cc1ccc(O)cc1)C(=O)O` [Meglumine Salt] (Palmitoyl-PPGY-OH), the solubility in data set [1] (read-out: Solubility) was below 10000 µg/mL.

Take `CCCCCCCCCCCCCCCC(=O)N1CCC[C@H]1C(=O)N1CCC[C@H]1C(=O)NCC(=O)N[C@@H](Cc1ccc(O)cc1)C(=O)O` [Micronized Compound II] (Palmitoyl-PPGY-OH): the solubility in data set [4] (FaSSIF, 25° C., LOQ = 2 μg/mL) was 50 µg/mL (≈ 74.5 µM); in data set [4] (setting [28]) it was “<LOQ”; in data set [4] (Water, 25° C., LOQ = 2 μg/mL), “<LOQ”.
